Several values for one entry are separate records, joined by “and”; a condition that tells them apart may be missing. Equal values may be shown once.
Tested on: A498 complex spheroids with HUVEC/MSC, growth
Assay: Anticancer human tumor A498 cell line growth inhibition [AhR];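 further: seven day exposure starting three days after spheroid seeding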;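 on viability, T/C: luminescence signal used as a surrogate for viable cells; luminescence viability scaled so 100% equals DMSO vehicle wells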
Details: for viability, T/C: stronger effect = lower value
Excerpt: Multicellular complex tumor spheroid response to aryl hydrocarbon receptor antagonists in combination with a variety of drugs and investigational agents in selected tumor cell lines
The current study was undertaken to assess response to aryl hydrocarbon receptor antagonists in combination with standard-of-care drugs and investigational agents in solid tumor complex spheroid models. Complex spheroids include a stromal component modeled by human endothelial cells (HUVEC) and fibroblasts modeled by human mesenchymal stem cells (MSCs). The concentration ranges selected for each drug and investigational agent were based upon clinically achievable concentrations if the clinical Cmax of the agent was known.
Compounds. The drugs and investigational agents: BAY 2416964 (NSC825713), GNF351 (NSC835774), CH-223191 (NSC835775), CPI-455 (NSC825282), aza-TdCyd (NSC777586), decitabine (NSC127716), belinostat (NSC758774), entinostat (NSC756642), pevonedistat (NSC761192), tazemetostat (NSC777109), talazoparib (NSC765396), olaparib (NSC753686), selinexor (NSC780203), nedisertib (M3814, NSC802822), bortezomib (NSC756655), venetoclax (NSC766270), doxorubicin (NSC123127), elimusertib (BAY189344, NSC800525), ceralasertib (AZD6738, NSC777638), TAK-243 (NSC785004), alisertib (NSC759677), etoposide (NSC141540), topotecan (NSC609699), eribulin (NSC707389), gemcitabine (NSC613327), carboplatin (NSC241240), cisplatin (NSC119875), and SN-38 (NSC673596) were obtained from the National Cancer Institute (NCI) Developmental Therapeutics Program Chemical Repository (32). The FDA-approved anticancer drug set is available from the Developmental Therapeutics Program at https://dtp.cancer.gov/organization/dscb/obtaining/available plates.htm. […] The stock solutions were prepared in dimethyl sulfoxide (DMSO, Sigma-Aldrich, St. Louis, MO, cat. D2650), except for the platinum compounds which were prepared in saline (Quality Biological, Gaithersburg, MD, cat. 114-055-101), at 800-fold the tested concentration and stored at -70 degrees C prior to their use. All drugs and investigational agents were tested over a range starting from a high concentration at or near the clinical Cmax and decreasing in half-log increments. If the clinical Cmax for an agent had not been determined, the highest concentration tested was 10 microM (Table 1).
Cell Culture. All cells were maintained in an incubator at 37 degrees C and 5% CO2 with 95% humidity. The PDC lines were cultured according to standard operating procedures established by the NCI PDMR (https://pdmr.cancer.gov). Briefly, all PDCs were thawed and cultured in Matrigel-coated flasks prepared with a working solution of 1X Ham's F-12 nutrient mix, without supplementation (Invitrogen, Waltham, MA, cat. 11765054), 100 U/mL penicillin-streptomycin (Invitrogen, cat. 15140122), and 2.5% Matrigel (Corning Inc., Corning, NY, cat. 354248) for the first three passages. All PDCs were cultured in complete DMEM/F-12 media containing advanced DMEM/F-12 (Invitrogen, cat. 12634028), 4.9% defined fetal bovine serum, heat inactivated (HyClone Laboratories Inc., Logan, UT, cat. SH30070.03HI), 389 ng/mL hydrocortisone (Sigma-Aldrich, cat. H4001), 9.7 ng/mL human EGF recombinant protein (Invitrogen, cat. PHG0313), 23.4 microg/mL adenine (Sigma-Aldrich, cat. A2786), 97.3 U/mL penicillin-streptomycin (Invitrogen, cat. 15140122), 1.9 mM L-glutamine (Invitrogen, cat. 25030081), and 9.7 microM Y-27632 dihydrochloride (Tocris Bioscience, Bristol, United Kingdom, cat. 1254). The PDCs were cultured in complete DMEM/F12 media without 10 microM Y-27632 dihydrochloride for at least two passages prior to the screen. The established cell lines NCI-H1341 and […] were cultured in DMEM/F-12, HEPES (Invitrogen, cat. 11330032), 5% defined fetal bovine serum (HyClone Laboratories Inc., cat. SH30070.03), ITS premix universal culture supplement [insulin (5 microg/mL), transferrin (5 microg/mL), and selenious acid (5 ng/mL)] […]

[1] = curve of first compound, second compound 0.1 µM
[2] = curve of first compound, second compound 0.316 µM
[3] = curve of first compound, second compound 1 µM
[4] = curve of first compound, second compound 3.16 µM
[5] = curve of first compound, second compound 10 µM
[6] = second compound 0.1 µM, first compound 0.0316 µM
[7] = second compound 0.1 µM, first compound 0.1 µM
[8] = second compound 0.1 µM, first compound 0.316 µM
[9] = second compound 0.1 µM, first compound 1 µM
[10] = second compound 0.1 µM, first compound 3.16 µM
[11] = second compound 0.1 µM, first compound 10 µM
[12] = second compound 0.316 µM, first compound 0.0316 µM
[13] = second compound 0.316 µM, first compound 0.1 µM
[14] = second compound 0.316 µM, first compound 0.316 µM
[15] = second compound 0.316 µM, first compound 1 µM
[16] = second compound 0.316 µM, first compound 3.16 µM
[17] = second compound 0.316 µM, first compound 10 µM
[18] = second compound 1 µM, first compound 0.0316 µM
[19] = second compound 1 µM, first compound 0.1 µM
[20] = second compound 1 µM, first compound 0.316 µM
[21] = second compound 1 µM, first compound 1 µM
[22] = second compound 1 µM, first compound 3.16 µM
[23] = second compound 1 µM, first compound 10 µM
[24] = second compound 3.16 µM, first compound 0.0316 µM
[25] = second compound 3.16 µM, first compound 0.1 µM
[26] = second compound 3.16 µM, first compound 0.316 µM
[27] = second compound 3.16 µM, first compound 1 µM
[28] = second compound 3.16 µM, first compound 3.16 µM
[29] = second compound 3.16 µM, first compound 10 µM
[30] = second compound 10 µM, first compound 0.0316 µM
[31] = second compound 10 µM, first compound 0.1 µM
[32] = second compound 10 µM, first compound 0.316 µM
[33] = second compound 10 µM, first compound 1 µM
[34] = second compound 10 µM, first compound 3.16 µM
[35] = second compound 10 µM, first compound 10 µM

SMILES: O=C(C=Cn1cnc(-c2cc(C(F)(F)F)cc(C(F)(F)F)c2)n1)NNc1cnccn1 + Cc1cncc(-c2nc(NCCc3c[nH]c4ccccc34)c3ncn(C(C)C)c3n2)c1
- IC50 [1]: 0.0815 µM
- IC50 [2]: 0.105 µM
- IC50 [3]: 0.0782 µM
- IC50 [4]: 0.0724 µM
- IC50 [5]: < 0.00949 µM
- viability, T/C (second compound 0.1 µM, first compound 0.00949 µM): 86.3%
- viability, T/C (second compound 0.1 µM, first compound 0.03 µM): 73.7%
- viability, T/C (second compound 0.1 µM, first compound 0.0949 µM): 46.5%
- viability, T/C (second compound 0.1 µM, first compound 0.3 µM): 30.3%
- viability, T/C (second compound 0.1 µM, first compound 0.949 µM): 25.3%
- viability, T/C (second compound 0.1 µM, first compound 3 µM): 26.6%
- viability, T/C (second compound 0.316 µM, first compound 0.00949 µM): 87.2%
- viability, T/C (second compound 0.316 µM, first compound 0.03 µM): 81.1%
- viability, T/C (second compound 0.316 µM, first compound 0.0949 µM): 51.5%
- viability, T/C (second compound 0.316 µM, first compound 0.3 µM): 30.9%
- viability, T/C (second compound 0.316 µM, first compound 0.949 µM): 30.8%
- viability, T/C (second compound 0.316 µM, first compound 3 µM): 22.2%
- viability, T/C (second compound 1 µM, first compound 0.00949 µM): 84.8%
- viability, T/C (second compound 1 µM, first compound 0.03 µM): 73.2%
- viability, T/C (second compound 1 µM, first compound 0.0949 µM): 45.6%
- viability, T/C (second compound 1 µM, first compound 0.3 µM): 27.9%
- viability, T/C (second compound 1 µM, first compound 0.949 µM): 25%
- viability, T/C (second compound 1 µM, first compound 3 µM): 24.6%
- viability, T/C (second compound 3.16 µM, first compound 0.00949 µM): 69.3%
- viability, T/C (second compound 3.16 µM, first compound 0.03 µM): 67.6%
- viability, T/C (second compound 3.16 µM, first compound 0.0949 µM): 43.9%
- viability, T/C (second compound 3.16 µM, first compound 0.3 µM): 30.1%
- viability, T/C (second compound 3.16 µM, first compound 0.949 µM): 24.2%
- viability, T/C (second compound 3.16 µM, first compound 3 µM): 23.2%
- viability, T/C (second compound 10 µM, first compound 0.00949 µM): 3.95%
- viability, T/C (second compound 10 µM, first compound 0.03 µM): 5.26%
- viability, T/C (second compound 10 µM, first compound 0.0949 µM): 7.65%
- viability, T/C (second compound 10 µM, first compound 0.3 µM): 6.47%
- viability, T/C (second compound 10 µM, first compound 0.949 µM): 8.27%
- viability, T/C (second compound 10 µM, first compound 3 µM): 11.1%

SMILES: O=C(C=Cc1cccc(S(=O)(=O)Nc2ccccc2)c1)NO + Cc1ccccc1N=Nc1ccc(NC(=O)c2ccnn2C)c(C)c1
- IC50 [1]: 1.95 µM
- IC50 [2]: 2.02 µM
- IC50 [3]: 1.85 µM
- IC50 [4]: 1.45 µM
- IC50 [5]: 1.79 µM
- viability, T/C [6]: 84.2%
- viability, T/C [7]: 88.4%
- viability, T/C [8]: 72%
- viability, T/C [9]: 56.9%
- viability, T/C [10]: 45.4%
- viability, T/C [11]: 19.8%
- viability, T/C [12]: 95.6%
- viability, T/C [13]: 87.5%
- viability, T/C [14]: 75.2%
- viability, T/C [15]: 59.5%
- viability, T/C [16]: 46.3%
- viability, T/C [17]: 20.1%
- viability, T/C [18]: 82.4%
- viability, T/C [19]: 82.7%
- viability, T/C [20]: 68.2%
- viability, T/C [21]: 54.6%
- viability, T/C [22]: 47%
- viability, T/C [23]: 18.3%
- viability, T/C [24]: 85.5%
- viability, T/C [25]: 80.9%
- viability, T/C [26]: 63%
- viability, T/C [27]: 55.7%
- viability, T/C [28]: 42.4%
- viability, T/C [29]: 18.8%
- viability, T/C [30]: 80.2%
- viability, T/C [31]: 75.7%
- viability, T/C [32]: 71.1%
- viability, T/C [33]: 55.1%
- viability, T/C [34]: 43.9%
- viability, T/C [35]: 17.5%

SMILES: O=C(c1cc(Cc2n[nH]c(=O)c3ccccc23)ccc1F)N1CCN(C(=O)C2CC2)CC1
- viability, T/C (compound 0.0316 µM): 100% and 101% (2×)
- viability, T/C (compound 0.1 µM): 103% and 100% and 104%
- viability, T/C (compound 0.316 µM): 99.4% and 99.2% and 99.5%
- viability, T/C (compound 1 µM): 108% and 99.4% and 100%
- viability, T/C (compound 3.16 µM): 106% and 98.4% and 101%
- viability, T/C (compound 10 µM): 94% and 92.4% and 92.1%
- IC50 (curve of compound): > 10 µM

SMILES: COc1cc(Nc2ncc3c(n2)-c2ccc(Cl)cc2C(c2c(F)cccc2OC)=NC3)ccc1C(=O)O + Cc1ccccc1N=Nc1ccc(NC(=O)c2ccnn2C)c(C)c1
- IC50 [1]: 1.92 µM
- IC50 [2]: 1.83 µM
- IC50 [3]: 1.51 µM
- IC50 [4]: 1.35 µM
- IC50 [5]: 2.55 µM
- viability, T/C [6]: 70.2%
- viability, T/C [7]: 73%
- viability, T/C [8]: 65.8%
- viability, T/C [9]: 54.4%
- viability, T/C [10]: 46.6%
- viability, T/C [11]: 33.5%
- viability, T/C [12]: 70%
- viability, T/C [13]: 72.4%
- viability, T/C [14]: 70.7%
- viability, T/C [15]: 54.9%
- viability, T/C [16]: 45.2%
- viability, T/C [17]: 34.2%
- viability, T/C [18]: 67.8%
- viability, T/C [19]: 67.2%
- viability, T/C [20]: 59.6%
- viability, T/C [21]: 56.5%
- viability, T/C [22]: 41.3%
- viability, T/C [23]: 31.8%
- viability, T/C [24]: 69.2%
- viability, T/C [25]: 72.7%
- viability, T/C [26]: 62.2%
- viability, T/C [27]: 49.9%
- viability, T/C [28]: 44.8%
- viability, T/C [29]: 31.8%
- viability, T/C [30]: 63.9%
- viability, T/C [31]: 63.4%
- viability, T/C [32]: 56.7%
- viability, T/C [33]: 59%
- viability, T/C [34]: 47.9%
- viability, T/C [35]: 35.1%

From PubChem BioAssay AID1919007 (Molecular Pharmacology Branch, DTP, NCI, 2023)
